Reference: patent US20230045421A1 (priority 2018, published 2023)

These compounds were tested on HBV rcDNA (assay: HepDE19 assay with bDNA quantitation of HBV rcDNA). Details: Hepatitis B virus, HepDE19, HepDE19 assay, inhibition of formation of rcDNA; read-out: DE-19bDNA EC50.
Format: cell-based, hepatitis B virus
Description: HepDE19 Assay with bDNA Quantitation of HBV rcDNA:
HepDE19 cell culture system is a HepG2 (human hepatocarcinoma) derived cell line that supports HBV DNA replication and cccDNA formation in a tetracycline (Tet)-regulated manner and produces HBV rcDNA and a detectable reporter molecule dependent on the production and maintenance of cccDNA (Guo, et al., 2007, J. Virol. 81:12472-12484).
HepDE19 (50,000 cells/well) were plated in 96-well collagen-coated tissue-culture treated microtiter plates in DMEM/F12 medium supplemented with 10% fetal bovine serum, 1% penicillin-streptomycin and 1 μg/mL tetracycline and incubated in a humidified incubator at 37° C. and 5% CO2 overnight. Next day, the cells were switched to fresh medium without tetracycline and incubated for 4 hours at 37° C. and 5% CO2. The cells were treated with fresh Tet-free medium with compounds at concentrations starting at 25 μM and a serial, […], 8-point, titration series in duplicate. The final DMSO concentration in the assay was 0.5%. The plates were incubated for 7 days in a humidified incubator at 37° C. and 5% CO2. Following a 7 day-incubation, the level of rcDNA present in the inhibitor-treated wells was measured using a Quantigene 2.0 bDNA assay kit (Affymetrix, Santa Clara, Calif.) with HBV specific custom probe set and manufacturers instructions. Concurrently, the effect of compounds on cell viability was assessed using replicate plates, plated at a density of 5,000 cells/well and incubated for 4 days, to determine the ATP content as a measure of cell viability using the cell-titer glo reagent (CTG; Promega Corporation, Madison, Wis.) as per manufacturer's instructions. The plates were read using a Victor luminescence plate reader (PerkinElmer Model 1420 Multilabel counter) and the relative luminescence units (RLU) data generated from each well was calculated as % inhibition of the untreated control wells and analyzed using XL-Fit module in Microsoft Excel to determine EC50 and EC90 (bDNA) and CC50 (CTG) values using a 4-parameter curve fitting algorithm.

Q: For `CC(c1c[nH]c(=O)c2ccccc12)N(C)C(=O)Nc1ccc(F)c(Cl)c1` (racemic) [Compound 12, 3-(3-Chloro-4-fluorophenyl)-1-methyl-1-(1-(1-oxo-1,2-dihydroisoquinolin-4-yl)ethyl)urea], which EC50 is on record?
A: 160 nM

Q: How did the EC50 turn out when `COc1ncc(C(CCO)NC(=O)Nc2ccc(F)c(Cl)c2)c2ccccc12` (racemic) [Compound 71, 1-(3-Chloro-4-fluorophenyl)-3-(3-hydroxy-1-(1-methoxyisoquinolin-4-yl)propyl)urea] was run?
A: 4400 nM

Q: Which EC50 does the source give for `CC(=O)NCCN(C(=O)Nc1ccc(F)c(Cl)c1)C(C)c1c[nH]c(=O)c2ccccc12` (racemic) [Compound 100, N-(2-(3-(3-chloro-4-fluorophenyl)-1-(1-(1-oxo-1,2-dihydroisoquinolin-4-yl)ethyl)ureido)ethyl)acetamide] here?
A: 1000 nM

Q: `CCN(C(=O)Nc1ccc(F)c(Cl)c1)C(C)c1c[nH]c(=O)c2cnccc12` (racemic) [Compound 102, 3-(3-Chloro-4-fluorophenyl)-1-ethyl-1-(1-(1-oxo-1,2-dihydro-2,7-naphthyridin-4-yl)ethyl)urea] was tested. Which EC50 did it give?
A: 100 nM

Q: With `CC(c1c[nH]c(=O)c2ccccc12)N(CCC#N)C(=O)Nc1ccc(F)c(Cl)c1` (racemic) [Compound 103, 3-(3-chloro-4-fluorophenyl)-1-(2-cyanoethyl)-1-(1-(1-oxo-1,2-dihydroisoquinolin-4-yl)ethyl)urea] as the compound, how does the EC50 read?
A: 270 nM

Q: `CNC(=O)CCN(C(=O)Nc1ccc(F)c(Cl)c1)C(C)c1c[nH]c(=O)c2ccccc12` (racemic) [Compound 104, 3-(3-(3-chloro-4-fluorophenyl)-1-(1-(1-oxo-1,2-dihydroisoquinolin-4-yl)ethyl)ureido)-N-methylpropanamide] was tested. Which EC50 did it give?
A: 570 nM

Q: Which EC50 does the source give for `CC(c1c[nH]c(=O)c2ccccc12)N(CC(N)=O)C(=O)Nc1ccc(F)c(Cl)c1` (racemic) [Compound 128, 2-(3-(3-Chloro-4-fluorophenyl)-1-(1-(1-oxo-1,2-dihydroisoquinolin-4-yl)ethyl)ureido) acetamide] here?
A: 1500 nM

Q: For `CC(c1c[nH]c(=O)c2ccccc12)N(CC1CCOCC1)C(=O)Nc1ccc(F)c(Cl)c1` (racemic) [Compound 134, 3-(3-chloro-4-fluorophenyl)-1-(1-(1-oxo-1,2-dihydroisoquinolin-4-yl)ethyl)-1-((tetrahydro-2H-pyran-4-yl)methyl)urea], which EC50 is on record?
A: 70 nM

Q: `CC(C)CN(C(=O)Nc1ccc(F)c(Cl)c1)C(C)c1c[nH]c(=O)c2ccccc12` (racemic) [Compound 135, 3-(3-chloro-4-fluorophenyl)-1-isobutyl-1-(1-(1-oxo-1,2-dihydroisoquinolin-4-yl)ethyl)urea] was tested. Which EC50 did it give?
A: 10 nM

Q: `CNc1ncc(C(C)N(C)C(=O)Nc2ccc(F)c(Cl)c2)c2nccnc12` (racemic) [Compound 136, 3-(3-chloro-4-fluorophenyl)-1-methyl-1-(1-(5-(methylamino)pyrido[3,4-b]pyrazin-8-yl)ethyl)urea] was tested. Which EC50 did it give?
A: 2800 nM

Q: `COc1ncc(C(C)N(C)C(=O)Nc2ccc(F)c(Cl)c2)c2nccnc12` (racemic) [Compound 137, 3-(3-chloro-4-fluorophenyl)-1-(1-(5-methoxypyrido[3,4-b]pyrazin-8-yl)ethyl)-1-methylurea] was tested. Which EC50 did it give?
A: 6100 nM

Q: How did the EC50 turn out when `CC(c1c[nH]c(=O)c2ccccc12)N(CC(=O)N(C)C)C(=O)Nc1ccc(F)c(Cl)c1` (racemic) [Compound 147, 2-(3-(3-Chloro-4-fluorophenyl)-1-(1-(1-oxo-1,2-dihydroisoquinolin-4-yl)ethyl)ureido)-N,N-dimethylacetamide] was run?
A: 840 nM

Q: `CC(c1c[nH]c(=O)c2nccnc12)N(C)C(=O)Nc1ccc(F)c(Cl)c1` (racemic) [Compound 148, 3-(3-chloro-4-fluorophenyl)-1-methyl-1-(1-(5-oxo-5,6-dihydropyrido[3,4-b]pyrazin-8-yl)ethyl)urea] was tested. Which EC50 did it give?
A: 15000 nM

Q: How did the EC50 turn out when `CC(C)CN(C(=O)Nc1ccc(F)c(Cl)c1)C(C)c1c[nH]c(=O)c2cnccc12` (racemic) [Compound 154, 3-(3-Chloro-4-fluorophenyl)-1-isobutyl-1-(1-(1-oxo-1,2-dihydro-2,7-naphthyridin-4-yl)ethyl)urea] was run?
A: 20 nM

Q: With `CC(c1c[nH]c(=O)c2ccccc12)N(CCCN)C(=O)Nc1ccc(F)c(Cl)c1` (racemic) [Compound 157, 1-(3-aminopropyl)-3-(3-chloro-4-fluorophenyl)-1-(1-(1-oxo-1,2-dihydroisoquinolin-4-yl)ethyl)urea] as the compound, how does the EC50 read?
A: 23000 nM

Q: Which EC50 does the source give for `COc1ncc(C(C)N(CCNCC(F)(F)F)C(=O)Nc2ccc(F)c(Cl)c2)c2ccccc12` (racemic) [Compound 158, 3-(3-Chloro-4-fluorophenyl)-1-(1-(1-methoxyisoquinolin-4-yl)ethyl)-1-(2-((2,2,2-trifluoroethyl)amino)ethyl)urea] here?
A: 2700 nM

Q: How did the EC50 turn out when `COc1ccc2c(C(C)N(C)C(=O)Nc3ccc(F)c(Cl)c3)c[nH]c(=O)c2c1` (racemic) [Compound 173, 3-(3-Chloro-4-fluorophenyl)-1-(1-(7-methoxy-1-oxo-1,2-dihydroisoquinolin-4-yl)ethyl)-1-methylurea] was run?
A: 380 nM

Q: Which EC50 does the source give for `CC(c1c[nH]c(=O)c2ccccc12)N(C[C@H]1CC[C@H](O)CC1)C(=O)Nc1ccc(F)c(Cl)c1` (mixture of isomers) [Compound 221, trans-3-(3-Chloro-4-fluorophenyl)-1-((4-hydroxycyclohexyl)methyl)-1-(1-(1-oxo-1,2-dihydroisoquinolin-4-yl)ethyl)urea] here?
A: 210 nM

Q: Which EC50 does the source give for `CC(c1c[nH]c(=O)c2ccccc12)N(C[C@H]1CC[C@@H](O)CC1)C(=O)Nc1ccc(F)c(Cl)c1` (mixture of isomers) [Compound 225, cis-3-(3-Chloro-4-fluorophenyl)-1-((4-hydroxycyclohexyl)methyl)-1-(1-(1-oxo-1,2-dihydroisoquinolin-4-yl)ethyl)urea] here?
A: 80 nM

Q: How did the EC50 turn out when `CC(c1cn(CC(F)(F)F)c(=O)c2ccccc12)N(C)C(=O)Nc1ccc(F)c(Cl)c1` (racemic) [Compound 228, 3-(3-Chloro-4-fluorophenyl)-1-methyl-1-(1-(1-oxo-2-(2,2,2-trifluoroethyl)-1,2-dihydroisoquinolin-4-yl)ethyl)urea] was run?
A: 780 nM

Q: How did the EC50 turn out when `CC(C)CN(C(=O)Nc1ccc(F)c(Cl)c1)C(C)c1cn(CC(F)(F)F)c(=O)c2ccccc12` (racemic) [Compound 229, 3-(3-Chloro-4-fluorophenyl)-1-isobutyl-1-(1-(1-oxo-2-(2,2,2-trifluoroethyl)-1,2-dihydroisoquinolin-4-yl)ethyl)urea] was run?
A: 70 nM

Q: Which EC50 does the source give for `Cc1cc(NC(=O)N(C)C(C)c2c(C)[nH]c(=O)c3ccccc23)ccc1F` (racemic) [Compound 230, 3-(4-Fluoro-3-methylphenyl)-1-methyl-1-(1-(3-methyl-1-oxo-1,2-dihydroisoquinolin-4-yl)ethyl)urea] here?
A: 120 nM

Q: With `CC(C)CN(C(=O)Nc1ccc(F)cc1)C(C)c1cn(CC(F)(F)F)c(=O)c2ccccc12` (racemic) [Compound 235, 3-(4-Fluorophenyl)-1-isobutyl-1-(1-(1-oxo-2-(2,2,2-trifluoroethyl)-1,2-dihydroisoquinolin-4-yl)ethyl)urea] as the compound, how does the EC50 read?
A: 210 nM

Q: For `CC(c1cnc(NCCN)c2ccccc12)N(C)C(=O)Nc1ccc(F)c(Cl)c1` (racemic) [Compound 244, 1-(1-(1-((2-aminoethyl)amino)isoquinolin-4-yl)ethyl)-3-(3-chloro-4-fluorophenyl)-1-methylurea], which EC50 is on record?
A: 2700 nM

Q: Which EC50 does the source give for `CC(c1c[nH]c(=O)c2cc(F)ccc12)N(C)C(=O)Nc1ccc(F)c(Cl)c1` (racemic) [Compound 257, 3-(3-Chloro-4-fluorophenyl)-1-(1-(7-fluoro-1-oxo-1,2-dihydroisoquinolin-4-yl)ethyl)-1-methylurea] here?
A: 33 nM

Q: With `CC(c1c[nH]c(=O)c2cc(F)ccc12)N(C)C(=O)Nc1ccc(F)cc1` (racemic) [Compound 258, 3-(4-Fluorophenyl)-1-(1-(7-fluoro-1-oxo-1,2-dihydroisoquinolin-4-yl)ethyl)-1-methylurea] as the compound, how does the EC50 read?
A: 150 nM

Q: How did the EC50 turn out when `CC(c1c[nH]c(=O)c2cc(Cl)ccc12)N(C)C(=O)Nc1ccc(F)c(Cl)c1` (racemic) [Compound 271, 1-(1-(7-Chloro-1-oxo-1,2-dihydroisoquinolin-4-yl)ethyl)-3-(3-chloro-4-fluorophenyl)-1-methylurea] was run?
A: 200 nM

Same assay, conditions: Hepatitis B virus, HepDE19, HepDE19 assay, inhibition of formation of relaxed circular DNA (rcDNA), bDNA quantitation; read-out: DE-19bDNA EC50

Q: `CC(c1cnc(-n2cncn2)c2ccccc12)N(C)C(=O)Nc1ccc(F)c(Cl)c1` (racemic) [Compound 297, 1-(1-(1-(1H-1,2,4-triazol-1-yl)isoquinolin-4-yl)ethyl)-3-(3-chloro-4-fluorophenyl)-1-methylurea] was tested. Which EC50 did it give?
A: 180 nM

Q: For `CC(C)CN(C(=O)Nc1ccc(F)c(Cl)c1)C(C)c1cnc(-n2cncn2)c2ccccc12` (racemic) [Compound 300, 1-(1-(1-(1H-1,2,4-triazol-1-yl)isoquinolin-4-yl)ethyl)-3-(3-chloro-4-fluorophenyl)-1-isobutylurea], which EC50 is on record?
A: 20 nM
